Results reported in US20050014942A1, “Amide derivatives and drugs” (priority 2001, published 2005).
Structures can show the parent of a compound that is named as a salt.

Test system: collagen production induced by TGF-β (NHDF cells)
Assay: Inhibitory effect on collagen production induced by TGF-β, [3H] proline uptake (NHDF cells)
Type: cell-based, human
Conditions: Homo sapiens, NHDF, TGF-β1 3 ng/ml
Experimental: As an index of collagen production, the uptake of [^3H] proline was measured.
Using a 96-well microplate, normal human skin derived fibroblast (NHDF, 10^4/well) or human embryonic lung fibroblast (TIG-3, 10^4/well) were cultured in a 10% fetal calf serum (FCS)-containing Dulbecco's modified Eagle medium (DMEM) for one day. After removing the culture supernatant, the cells were washed once with a 0.1% bovine serum albumin (BSA)-containing DMEM medium and then cultured in the 0.1% bovine serum albumin (BSA)-containing DMEM medium for one day. After adding each of the test compounds in each concentration (1, 3, 10 μM), the cells were cultured and, after adding TGF-β1 (3 ng/ml) and [^3H] proline (18.5 kBq/well), the cells were further cultured for additional one day.
After removing the culture supernatant, the cells were washed twice with a phosphate buffer solution (PBS) and dissolved with 0.3M NaOH and 1% sodium dodecylsulfate (SDS), and then each protein fraction was precipitated with trichloroacetic acid (TCA) After the precipitate was filtered through a glass filter (GF/B) and washed, the quantity of [^3H] proline on the glass filter was measured by a liquid scintillation counter. The number of cells was measured by a cell growth measuring kit (XTT, Roche) and the uptake of [^3H] proline was corrected by the number of cells. Inhibitory ratio was calculated as compared with the case where a difference between the uptake of [^3H] proline with or without TGF-β1.

| SMILES | inhibition at 3 µM [%] | inhibition at 10 µM [%] | inhibition at 1 µM [%] |
| --- | --- | --- | --- |
| COc1ccc(-c2c(/C=C/C(=O)N(C)CCC(O)c3ccccc3)c3ccccc3n2C)cc1 (stereo not shown) [Example 119, (2E)-N-methyl-N-(3-hydroxy-3-phenylpropyl)-3-[1-methyl-2-(4-methoxyphenyl)-1H-indol-3-yl]acrylamide] | 75 | 153 | – |
| CN1CCC(N(C)C(=O)/C=C/c2c(-c3ccccc3)n(C)c3ncccc23)CC1 [Example 122, (2E)-N-methyl-N-(1-methyl-piperidin-4-yl)-3-(1-methyl-2-phenyl-1H-pyrrolo[2,3-b]pyridin-3-yl)acrylamide] | 57 | – | 20 |
| CC1c2cc(O)c(O)cc2CCN1C(=O)/C=C/c1c(-c2ccc3c(c2)OCO3)n(C)c2ccccc12 (stereo not shown) [Example 114, 2-{(2E)-3-[1-methyl-2-(3,4-methylenedioxyphenyl)-1H-indol-3-yl]prop-2-enoyl}-1-methyl-6,7-dihydroxy-1,2,3,4-tetrahydroisoquinoline] | 94 | 165 | – |
| COC(=O)CC1c2cc(OC)c(OC)cc2CCN1C(=O)/C=C/c1c(-c2ccccc2)n(C)c2ncccc12 (stereo not shown) [Example 133, Methyl {6,7-dimethoxy-2-[(2E)-3-(1-methyl-2-phenyl-1H-pyrrolo[2,3-b]pyridin-3-yl)prop-2-enoyl]-1,2,3,4-tetrahydroisoquinolin-1-yl}acetate hydrochloride] | 104 | – | 57 |
| CCOC(=O)C1CCCCC1NC(=O)c1cnc(N2CCN(C(=O)c3c(-c4ccccc4)n(C)c4ccc(C)cc34)CC2)cn1 (stereo not shown) [Example 127, Ethyl 2-{N-[(5-{4-[(1,5-dimethyl-2-phenyl-1H-indol-3-yl)carbonyl]piperazin-1-yl}pyrazin-2-yl)carbonyl]amino}-1-cyclohexanecarboxylate] | 78 | – | 72 |
| CC(=O)C1(c2ccccc2)CCN(C(=O)C=Cc2c(-c3ccc(C(=O)O)cc3)n(C)c3ccc(C)cc23)CC1 [Example 146, 4-{3-[3-(4-acetyl-4-phenylpiperidin-1-yl)-3-oxo-1-propenyl]-1,5-dimethyl-1H-indol-2-yl}benzoic acid] | 60 | – | 43 |
| COc1cc2c(cc1OC)CN(C(=O)/C=C/c1c(-c3ccncc3)n(C)c3ncccc13)CC2 [Example 135, 2-{(2E)-3-[1-methyl-2-(4-pyridyl)-1H-pyrrolo[2,3-b]pyridin-3-yl]prop-2-enoyl}-6,7-dimethoxy-1,2,3,4-tetrahydroisoquinoline dihydrochloride] | 110 | – | 78 |
| COc1cc2c(cc1OC)CN(C(=O)/C=C/c1c(-c3ccc(F)cc3)n(C)c3ncccc13)CC2 [Example 140, 2-{(2E)-3-[1-methyl-2-(4-fluorophenyl)-1H-pyrrolo[2,3-b]pyridin-3-yl]prop-2-enoyl}-6,7-dimethoxy-1,2,3,4-tetrahydroisoquinoline hydrochloride] | 171 | – | 140 |
| COc1cccc(-c2c(/C=C/C(=O)N(C)CCC(O)c3ccccc3)c3ccccc3n2C)c1 (stereo not shown) [Example 118, (2E)-N-methyl-N-(3-hydroxy-3-phenylpropyl)-3-[1-methyl-2-(3-methoxyphenyl)-1H-indol-3-yl]acrylamide] | 81 | 147 | – |
| Cn1c(-c2ccc3c(c2)OCO3)c(/C=C/C(=O)N[C@@H]2c3ccccc3C[C@@H]2O)c2ccccc21 [Example 113, (2E)-N-[(1R,2S)-2-hydroxy-2,3-dihydro-1H-inden-1-yl]-3-[1-methyl-2-(3,4-methylenedioxyphenyl)-1H-indol-3-yl]acrylamide] | 88 | 148 | – |
| COCn1c(-c2ccccc2)c(/C=C/C(=O)N2CCc3cc(OC)c(OC)cc3C2)c2cccnc21 [Example 139, 2-[(2E)-3-(1-methoxymethyl-2-phenyl-1H-pyrrolo[2,3-b]pyridin-3-yl)prop-2-enoyl]-6,7-dimethoxy-1,2,3,4-tetrahydroisoquinoline hydrochloride] | 54 | – | 37 |
